From patent publication US20240300940A1, “Phenothiazinyl Compounds and Uses” (Prosetta Biosciences, Inc., priority 2023, published 2024)
pEC50: −log10 of the molar value. Read-outs that look alike come from different tables or passages of the source.

Tests used:
[1] = test system: Hennes-20 cells; assay: Hennes-20 oncology screen; type: cell-based; details: 72 h, alamar Blue
Protocol: To screen compounds for oncology activity Hennes-20 cells were plated at low (500 cells/well) versus high (15,000 cells/well) densities and treated with DMSO (vehicle) or dose-titration of compounds. The rationale for this screen is that an intrinsically toxic compound should kill cells regardless of density, including in Hennes-20 cells. However, a compound that selectively triggers the arrest of proliferation will inhibit cell growth when plated at a low density will appear cytotoxic due to inhibition of cell growth when plated at a low density but will appear non-toxic to cells plated at a high density where the cells are approaching confluence and the readout detected by a cell viability assay is already close to the maximum.
To conduct the Hennes-20 screen, two 96 well plates were seeded with Hennes 20 cells in parallel where one was plated at a density of 500 cells/well and the other was plated at a density of 15,000 cells/well. 90 uL of minimum essential media was added to each well and plates were placed in a 37 degrees Celsius incubator for 24 hours. The next day, 10 ul of media containing dilutions of compound in DMSO were added to each plate. Six wells on each plate received 10 ul of media containing only DMSO. Each well was gently mixed 5 times with a 100 ul pipette. Plates were incubated at 37 degrees Celsius for 72 hours and then 10 uL of alamar Blue was added to each well. Wells were mixed 5 times then incubated at 37 degrees Celsius for […]. Plates were then read at 530/590.
The rationale for the screen is as follows: Hennes-20 cells lack endogenous apoptosis. Cells plated at low density will proliferate and approach confluence in 72 hrs. A drug that arrests proliferation may have its proliferation blocking effect masked by the triggering of endogenous apoptosis. However, in the Hennes line, lacking endogenous apoptosis, such an arrest is manifest as a dose-dependent maintenance at low cell density. Since the high-density cells are plated close to confluence, the difference between Alamar Blue cell survival readings after 72 hrs reflects the ability of the drug to block proliferation in the low density-plated cells. In the high density-plated cells any diminution of Alamar Blue readout vs vehicle control is due to intrinsic toxicity, not proliferation arrest, since cells were already at confluence. Thus, a compound that appears toxic (low Alamar Blue readings after 72 hrs) on the low-density plate, but which appears non-toxic (high Alamar Blue readings after 72 hrs) on the high-density plate, must be arresting proliferation, since intrinsic compound toxicity should be observed at both low and high cell densities, not selectively on the low-density plate.

[2] = test system: E. coli ATCC25922; assay: MIC assay, serial dilution; details: Escherichia coli
[3] = test system: C. albicans ATCC 24433; assay: Antifungal MIC assay; details: Candida albicans, ATCC24433
[4] = test system: S. aureus ATCC25923; assay: MIC assay, serial dilution; details: Staphylococcus aureus
[5] = test system: A. baumannii ATCC19606; assay: MIC assay, serial dilution; details: Acinetobacter baumannii
[6] = ATCC25922, read-out: Anti-bacterial Activity (E. coli MIC (uM)), E. coli, Table 5

CC1(C)C2CN(c3ccc4nc5c(Cl)cc(N6CC7C(C6)C7(C)C)cc5[s+]c4c3)CC21 (stereo not drawn) [Compound 15]
pEC50 [1]: 5.60 | MIC [2, 6]: 12.5 µM

c1cc2nc3c(N4CCCC4)cc(N4CCCC4)cc3[s+]c2cc1N1CCCC1 [Compound 20]
pEC50 [1]: 6.30 | MIC [2, 6]: 0.8 µM

Cc1cc(N2CCCC2)cc2[s+]c3c(F)c(N4CCCC4)cc(C)c3nc12 [Compound 21]
pEC50 [1]: > 6.30 | MIC [2, 6]: 1.6 µM

c1cc2nc3ccc(N4CCCCCC4)cc3[s+]c2cc1N1CCCCCC1 [Compound 22]
pEC50 [1]: > 6.30 | MIC [2, 6]: 1.6 µM

CC1(C)C2CN(c3cc(N4CCCC4)cc4[s+]c5cc(N6CCCC6)ccc5nc34)CC21 (stereo not drawn) [Compound 23]
pEC50 [1]: > 6.30 | MIC [2, 6]: 1.6 µM

CC(C)(C)OC(=O)NCc1cc2nc3ccc(N4CCCC4)cc3[s+]c2cc1N1CCCC1 [Compound 24]
pEC50 [1]: > 5.60 | MIC [2, 6]: 1.6 µM

c1cc2nc3ccc(N4CCC4)cc3[s+]c2cc1N1CCC1 [Compound 29]
pEC50 [1]: > 5.60 | MIC [2, 6]: 25 µM

CN(C)c1ccc2nc3ccc(N4CC5C(C4)C5(C)C)cc3[s+]c2c1 (stereo not drawn) [Compound 31]
pEC50 [1]: > 5.60 | MIC [2, 6]: 1.6 µM

CN(C)c1ccc2nc3ccc(N4CCCC4)cc3[s+]c2c1 [Compound 35]
pEC50 [1]: 6.30 | MIC [2, 6]: 12.5 µM

c1cc(N2CCCC2)c2nc3ccc(N4CCCC4)cc3[s+]c2c1 [Compound 38]
pEC50 [1]: 5.60 | MIC [2, 6]: 6.3 µM

CC(C)c1cc(N2CCCC2)cc2[s+]c3cc(N4CCCC4)ccc3nc12 [Compound 41]
pEC50 [1]: > 6.30 | MIC [2, 6]: 1.6 µM

Clc1cc(N2CCCC2)cc2[s+]c3cc(N4CCCC4)cc(Cl)c3nc12 [Compound 42]
pEC50 [1]: > 4.90 | MIC [2, 6]: 1.6 µM

Fc1cc(N2CCCC2)cc2[s+]c3cc(N4CCCC4)ccc3nc12 [Compound 43]
pEC50 [1]: 6.30 | MIC [2, 6]: 3.1 µM

CC(C)(C)OC(=O)NCC1CCCN1c1ccc2nc3ccc(N4CCCC4CNC(=O)OC(C)(C)C)cc3[s+]c2c1 (stereo not drawn) [Compound 49]
pEC50 [1]: > 5.60 | MIC [2, 6]: 1.6 µM

FC1(F)CCN(c2ccc3nc4ccc(N5CCC(F)(F)C5)cc4[s+]c3c2)C1 [Compound 53]
pEC50 [1]: < 4.90 | MIC [2, 6]: 12.5 µM

c1cc2nc3ccc(N4CCCCC4)cc3[s+]c2cc1N1CCCCC1 [Compound 62]
pEC50 [1]: > 6.30 | MIC [2, 6]: 6.3 µM

CC(C)(C)c1cc(N2CCCC2)cc2[s+]c3cc(N4CCCC4)ccc3nc12 [Compound 65]
pEC50 [1]: > 6.30 | MIC [2, 6]: 3.1 µM

CCc1cc(N2CCCC2)cc2[s+]c3cc(N4CCOCC4)cc(CC)c3nc12 [Compound 72]
pEC50 [1]: > 4.90 | MIC [2, 6]: 25 µM

CCc1cc(N(C)C)cc2[s+]c3cc(N4CCCN(C(=O)OC(C)(C)C)CC4)cc(CC)c3nc12 [Compound 74]
pEC50 [1]: > 6.30 | MIC [2, 6]: 6.3 µM

CCc1cc(N(CC)CC)cc2[s+]c3cc(N(CC)CC)cc(CC)c3nc12 [Compound 80]
pEC50 [1]: > 5.60 | MIC [2, 6]: 25 µM

Cc1cc(N2CCOCC2)cc2[s+]c3cc(N4CCOCC4)cc(C)c3nc12 [Compound 93]
pEC50 [1]: > 4.90 | MIC [2, 6]: 100 µM

CC(C)(C)OC(=O)NC1C2CN(c3cc(N4CCCC4)cc4[s+]c5cc(N6CCCC6)ccc5nc34)CC21 (stereo not drawn) [Compound 111]
MIC [3]: 1.6 µM

COC(=O)C1C2C(CN1c1cc(N3CCCC3)cc3[s+]c4cc(N5CCCC5)ccc4nc13)C2(C)C (stereo not drawn) [Compound 116]
MIC [4]: 1.6 µg/mL | MIC ([2]; ATCC25922, E. coli ATCC25922): 12.5 µg/mL | MIC [5]: 6.25 µg/mL

c1cc2nc3c(N4CCOCC4)cc(N4CCCC4)cc3[s+]c2cc1N1CCCC1 [Compound 123]
MIC [3]: 3.1 µM | MIC [4]: 6.25 µg/mL | MIC ([2]; ATCC25922, E. coli ATCC25922): > 100 µg/mL | MIC [5]: 100 µg/mL

CC1(C)C2CN(c3ccc4nc5c(N6CC7C(C6)C7(C)C)cc(N6CCCC6)cc5[s+]c4c3)CC21 (stereo not drawn) [Compound 124]
MIC [3]: 1.6 µM | MIC [4]: 6.25 µg/mL | MIC ([2]; ATCC25922, E. coli ATCC25922): 100 µg/mL | MIC [5]: 12.5 µg/mL

CC1(C)C2CN(c3ccc4nc5ccc(N6CC7C(C6C(=O)O)C7(C)C)cc5[s+]c4c3)C(C(=O)O)C21 (stereo not drawn) [Compound 127]
MIC [3]: > 100 µM | MIC [4]: > 100 µg/mL | MIC ([2]; ATCC25922, E. coli ATCC25922): > 100 µg/mL | MIC [5]: > 100 µg/mL

COC(=O)C1C2C(CN1c1ccc3nc4ccc(N5CC6C(C5C(=O)OC)C6(C)C)cc4[s+]c3c1)C2(C)C (stereo not drawn) [Compound 129]
MIC [3]: > 100 µM | MIC [4]: 12.5 µg/mL | MIC ([2]; ATCC25922, E. coli ATCC25922): > 100 µg/mL | MIC [5]: > 100 µg/mL

CC(C)(C)c1cc(N2CCCC2)cc2[s+]c3cc(N4CCCC4)cc(N4CCCC4)c3nc12 [Compound 130]
MIC [3]: 6.25 µM | MIC [4]: 6.25 µg/mL | MIC ([2]; ATCC25922, E. coli ATCC25922): 12.5 µg/mL | MIC [5]: 6.25 µg/mL

CC(C)(C)c1cc(N2CCCC2)cc2[s+]c3cc(N4CCCC4)cc(Br)c3nc12 [Compound 132]
MIC [3]: 12.5 µM | MIC [4]: 6.25 µg/mL | MIC ([2]; ATCC25922, E. coli ATCC25922): 100 µg/mL | MIC [5]: 12.5 µg/mL

CC(C)(C)c1cc([N+]2([O-])CCCC2)cc2[s+]c3cc(N4CCCC4)ccc3nc12 [Compound 133]
MIC [3]: 100 µM | MIC [4]: 12.5 µg/mL | MIC ([2]; ATCC25922, E. coli ATCC25922): > 100 µg/mL | MIC [5]: 100 µg/mL

C1=CCN(c2ccc3nc4ccc(N5CC=CC5)cc4[s+]c3c2)C1 [Compound 136]
MIC [3]: > 100 µM | MIC [4]: 25 µg/mL | MIC ([2]; ATCC25922, E. coli ATCC25922): > 100 µg/mL | MIC [5]: > 100 µg/mL

c1cc2nc3ccc(N4CCNC4)cc3[s+]c2cc1N1CCNC1 [Compound 137]
MIC [3]: > 100 µM | MIC [4]: > 100 µg/mL | MIC ([2]; ATCC25922, E. coli ATCC25922): > 100 µg/mL | MIC [5]: > 100 µg/mL

c1cc2nc3ccc(N4CCCNCC4)cc3[s+]c2cc1N1CCCNCC1 [Compound 139]
MIC [3]: > 100 µM | MIC [4]: > 100 µg/mL | MIC ([2]; ATCC25922, E. coli ATCC25922): > 100 µg/mL | MIC [5]: > 100 µg/mL

CC(C)(C)OC(=O)N1CCCN(c2ccc3nc4ccc(N5CCCN(C(=O)OC(C)(C)C)CC5)cc4[s+]c3c2)CC1 [Compound 140]
MIC [3]: > 100 µM | MIC [4]: > 100 µg/mL | MIC ([2]; ATCC25922, E. coli ATCC25922): > 100 µg/mL | MIC [5]: > 100 µg/mL

c1cc2nc3ccc(N4CCCOCC4)cc3[s+]c2cc1N1CCCOCC1 [Compound 141]
MIC [3]: > 100 µM | MIC [4]: 100 µg/mL | MIC ([2]; ATCC25922, E. coli ATCC25922): > 100 µg/mL | MIC [5]: > 100 µg/mL

c1cc2nc3ccc(N4CCSCC4)cc3[s+]c2cc1N1CCSCC1 [Compound 143]
MIC [3]: > 100 µM

c1cc2nc3c(N4CCCC4)cc(N4CCCC4)cc3[s+]c2cc1N1C2CCCC1CC2 [Compound 145]
MIC [3]: 1.6 µM | MIC [4]: 1.6 µg/mL | MIC ([2]; ATCC25922, E. coli ATCC25922): 25 µg/mL | MIC [5]: 6.25 µg/mL

c1cc2nc3ccc(N4C5CCCC4CC5)cc3[s+]c2cc1N1C2CCCC1CC2 [Compound 146]
MIC [3]: 6.25 µM | MIC [4]: 3.1 µg/mL | MIC ([2]; ATCC25922, E. coli ATCC25922): > 100 µg/mL | MIC [5]: 25 µg/mL

CC1(C)C2CN(c3ccc4nc5ccc(N6C7CCCC6CC7)cc5[s+]c4c3)CC21 (stereo not drawn) [Compound 147]
MIC [3]: 3.1 µM | MIC [4]: 1.6 µg/mL | MIC ([2]; ATCC25922, E. coli ATCC25922): 100 µg/mL | MIC [5]: 25 µg/mL

c1ccc2c(c1)Sc1ccccc1N2c1ccc2nc3ccc(N4C5CCCC4CC5)cc3[s+]c2c1 [Compound 148]
MIC [3]: 100 µM | MIC [4]: 25 µg/mL | MIC ([2]; ATCC25922, E. coli ATCC25922): > 100 µg/mL | MIC [5]: 100 µg/mL
